Test results: patent US20180362587A1, “Compositions and Methods for Inhibiting CBP80 Binding to PGC1 Family of Co-Activators” (University of Rochester, priority 2015, published 2018)
Blank lines part the entries; values can stand above or below the molecule they belong to. Square brackets hold non-standard residues; d marks the D form. Peptide text beside a SMILES is read from it. * marks the point of attachment. Crotonyl(E) = C/C=C/C(=O)*; Dab = NCC[C@H](N)C(=O)O; Aib = CC(C)(N)C(=O)O

Key:
[1] = target: T1, CBP80/CBP20 complex (Homo sapiens, UniProt Q09161); assay: fluorescence polarization based competition assay (displacement of FITC-labeled PGC1β peptide); format: binding; settings: 1 μM FITC-labeled PGC1β (FITC-Ahx-AMDFDSLLKEAQQSLH-NH2), 30 μM CBP80/CBP20 complex, HEPES buffer pH 7.5
T1 sequence (Q09161 1-790): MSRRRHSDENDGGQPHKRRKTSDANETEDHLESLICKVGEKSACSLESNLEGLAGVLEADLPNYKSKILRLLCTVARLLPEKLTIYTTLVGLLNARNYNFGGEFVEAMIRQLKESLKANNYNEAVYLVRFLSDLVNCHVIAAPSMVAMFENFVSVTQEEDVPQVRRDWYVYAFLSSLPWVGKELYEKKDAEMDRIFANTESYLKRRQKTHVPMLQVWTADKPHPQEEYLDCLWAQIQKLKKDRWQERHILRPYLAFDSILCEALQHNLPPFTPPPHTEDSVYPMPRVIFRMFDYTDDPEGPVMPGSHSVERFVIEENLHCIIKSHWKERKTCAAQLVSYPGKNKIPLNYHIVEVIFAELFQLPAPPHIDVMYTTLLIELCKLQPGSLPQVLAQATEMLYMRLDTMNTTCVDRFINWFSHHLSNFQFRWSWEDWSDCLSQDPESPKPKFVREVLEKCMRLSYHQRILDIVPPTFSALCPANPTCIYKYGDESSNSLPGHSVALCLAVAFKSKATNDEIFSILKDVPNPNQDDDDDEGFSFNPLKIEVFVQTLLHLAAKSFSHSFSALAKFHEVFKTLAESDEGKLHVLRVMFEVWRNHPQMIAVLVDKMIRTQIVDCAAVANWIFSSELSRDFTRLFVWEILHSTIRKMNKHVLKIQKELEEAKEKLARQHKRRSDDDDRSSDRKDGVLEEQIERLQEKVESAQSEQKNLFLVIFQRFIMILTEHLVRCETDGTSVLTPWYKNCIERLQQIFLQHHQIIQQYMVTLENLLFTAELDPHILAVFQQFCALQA
T1 sequence (P52298 1-156 partner): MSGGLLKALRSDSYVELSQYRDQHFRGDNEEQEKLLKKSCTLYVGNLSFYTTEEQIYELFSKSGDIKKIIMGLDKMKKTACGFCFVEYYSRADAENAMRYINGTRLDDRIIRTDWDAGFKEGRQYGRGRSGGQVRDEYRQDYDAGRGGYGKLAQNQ
Method: The ability of α-MOrPHs to disrupt the PGC1β-CBP80 interaction will be assessed and quantified via a fluorescence polarization-based competition assay, in which disruption of the complex formed between a fluorescein-conjugated PGC1β peptide and CBP80 is measured upon adding increasing concentrations of each inhibitory α-MOrPH (FIG. 5A). […] Initially, the length of the linker in the inhibitory α-MOrPH will be optimized for maximal activity toward disrupting the PGC1β-CBP80 interaction (e.g. using SP1-3, FIG. 4).
(§1) The relative activity of the PGC1β mimics toward disrupting the interaction between CBC and the fluorescein-conjugated PGC1β-derived peptide was measured in a competition assay. Briefly, a fixed amount of CBC and fluorescein-conjugated PGC1β-derived peptide are incubated with increasing amounts of the PGC1β mimic (FIG. 11A). From the resulting dose-dependent inhibition curves, the in vitro CBC inhibitory activity of the PGC1β mimic compound is measured based on their respective half-maximal inhibitory concentration (IC50) (FIG. 5B). Using this assay, various PGC1β mimics were evaluated for their relative ability to target CBC and disrupt its binding interaction with PGC1β. […] Short peptides derived from the C-terminal domain of PGC1β and PRC proteins, two other members of the PGC1 family of transcriptional coactivators, were also to bind CBC and inhibits its interaction with the fluorescein-labeled PGC1β peptide with IC50 values in the low micromolar range.
IC50 values were determined by adapting the fluorescence polarization assay described above to a competition format. 1 μM of the FITC-labeled PGC1β peptide (FITC-Ahx-AMDFDSLLKEAQQSLH-NH2) was incubated with 30 μM of the CBP80-CBP20 complex in HEPES Buffer (10 mM HEPES [pH 7.5], 50 mM NaCl and 5 mM 2-mercaptoethanol). The inhibitory peptide was added to the solution at varying concentrations, typically ranging from 1 to 200 μM. Half-maximal inhibitory concentration (IC50) values were calculated from the resulting inhibition curves as given by dose-dependent decrease in the fluorescence polarization signal. All measurements were performed at least in duplicates.

[2] = target: T2, CBP80/CBP20 complex (human, UniProt Q09161 20-790; P52298 1-156, limits assumed); assay: FP competition assay; 1 µM FITC-Ahx-…-NH2 as competitor, 30 µM CBP80/CBP20 complex
T2 construct: Used in the fluorescence polarization assays; In the crystal it also carried the cap analogue (m7GpppG / m7GpppA); also called CBC complex; CBC
T2 sequence (looked up) 1: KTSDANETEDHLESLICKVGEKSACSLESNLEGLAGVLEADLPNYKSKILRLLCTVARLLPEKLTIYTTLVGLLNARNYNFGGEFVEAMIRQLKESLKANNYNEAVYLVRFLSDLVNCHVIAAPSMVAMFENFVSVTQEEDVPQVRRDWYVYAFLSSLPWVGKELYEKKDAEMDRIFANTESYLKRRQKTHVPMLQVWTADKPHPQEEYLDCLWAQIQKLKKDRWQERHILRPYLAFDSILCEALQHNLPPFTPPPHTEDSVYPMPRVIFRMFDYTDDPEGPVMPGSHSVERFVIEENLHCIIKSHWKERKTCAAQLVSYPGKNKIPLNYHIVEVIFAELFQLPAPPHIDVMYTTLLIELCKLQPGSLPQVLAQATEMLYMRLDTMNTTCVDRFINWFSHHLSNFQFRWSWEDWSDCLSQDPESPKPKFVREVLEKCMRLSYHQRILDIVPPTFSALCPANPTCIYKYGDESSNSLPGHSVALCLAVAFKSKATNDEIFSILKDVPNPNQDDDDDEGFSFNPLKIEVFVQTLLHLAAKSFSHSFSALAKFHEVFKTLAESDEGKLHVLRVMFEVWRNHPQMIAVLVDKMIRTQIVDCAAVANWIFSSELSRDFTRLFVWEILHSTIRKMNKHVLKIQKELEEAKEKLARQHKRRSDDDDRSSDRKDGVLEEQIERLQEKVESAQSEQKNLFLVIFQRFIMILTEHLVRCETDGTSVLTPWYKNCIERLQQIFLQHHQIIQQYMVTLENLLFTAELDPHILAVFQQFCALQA
T2 sequence (looked up) 2: T1 sequence (P52298 1-156 partner)
Method: as §1, with “(IC₅₀)” for “(IC50)”, “IC₅₀” for “IC50”
^aAc = acetyl; Biot = biotin; Ahx = 6-aminohexanoic acid; Aib = 2-aminoisobutyric acid; CrtDab = N^γ-crotonyl-2,4-diaminobutyric acid. C-terminal ‘-NH₂’ refers to amidated C-terminal end of the peptide. ^bIC₅₀ was determined using fluorescence polarization based competition assay in the presence of 1 μM of FITC-labeled PGC1β (FITC-Ahx-[…]-NH₂, where FITC is fluorescein-isothiocyanate) and 30 μM of the CBP80/CBP20 complex in HEPES buffer (10 mM HEPES, 50 mM NaCl, 5 mM BME, pH 7.5).
IC₅₀ values were determined by adapting the fluorescence polarization assay described above to a competition format. 1 μM of the FITC-labeled PGC1β peptide (FITC-Ahx-[…]-NH₂) was incubated with 30 μM of the CBP80-CBP20 complex in HEPES Buffer (10 mM HEPES [pH 7.5], 50 mM NaCl and 5 mM 2-mercaptoethanol).

IC50 [1]: < 100 µM
Molecule: Ac-MAFDSLLKNAAAS-NH2 [PGC1β-13, Ac-MAFDSLLKNAAAS-NH2]

IC50 [1]: > 200 µM
Molecule: Ac-MDFDSALKEAQQS-NH2 [PGC1β-6A, Ac-MDFDSALKEAQQS-NH2]

IC50 [1]: 64 ± 2 µM
Molecule: Ac-MDFDALLKEAQQS-NH2 [PGC1β-5A, Ac-MDFDALLKEAQQS-NH2]

IC50 [1]: < 100 µM
Molecule: Ac-MAFDSLLKAAQQS-NH2 [PGC1β-15, Ac-MAFDSLLKAAQQS-NH2]

IC50 [1]: > 200 µM
Molecule: Ac-MDFDSLLKEGQQS-NH2 [PGC1β-10A, Ac-MDFDSLLKEGQQS-NH2]

Molecule: Ac-MDFDSLLKEAAQS-NH2 [PGC1β-11A, Ac-MDFDSLLKEAAQS-NH2]
IC50 [1]: 64 ± 2 µM

IC50 [1]: < 100 µM
Molecule: C/C=C/C(=O)NCC[C@H](NC(=O)[C@H](CC(C)C)NC(=O)[C@H](CC(C)C)NC(=O)[C@H](CO)NC(=O)[C@H](CC(=O)O)NC(=O)[C@H](Cc1ccccc1)NC(=O)[C@H](CC(=O)O)NC(=O)[C@H](CCSC)NC(C)=O)C(=O)N[C@@H](CCC(=O)O)C(=O)N[C@@H](C)C(=O)N[C@@H](CCC(N)=O)C(=O)N[C@@H](CCC(N)=O)C(=O)N[C@@H](CO)C(N)=O [PGC1β-18, Ac-MDFDSLL(CrtDab)EAQQS-NH2] (Ac-MDFDSLL[Dab](Crotonyl(E))EAQQS-NH2)

IC50 [1]: < 100 µM
Molecule: Ac-MAFDSMLKAAQQS-NH2 [PGC1β-17, Ac-MAFDSMLKAAQQS-NH2]

IC50 [1]: > 200 µM
Molecule: Ac-MDFDSLAKEAQQS-NH2 [PGC1β-7A, Ac-MDFDSLAKEAQQS-NH2]

IC50 [1]: < 100 µM
Molecule: Ac-MAFDSLLKNAAQS-NH2 [PGC1β-14, Ac-MAFDSLLKNAAQS-NH2]

IC50 [1]: ~35 µM
Molecule: Ac-AMDFDSLLKEAQQSLH-NH2 [PGC1β-Cterm, Ac-AMDFDSLLKEAQQSLH-NH2]

IC50 [1]: 69 µM
Molecule: Ac-MDFDSLLKEAQQS-NH2 [PGC1β-wt, Ac-MDFDSLLKEAQQS-NH2]

IC50 [1]: > 200 µM
Molecule: Ac-MDFASLLKEAQQS-NH2 [PGC1β-4A, Ac-MDFASLLKEAQQS-NH2]

IC50 [1]: > 200 µM
Molecule: Ac-MDADSLLKEAQQS-NH2 [PGC1β-3A, Ac-MDADSLLKEAQQS-NH2]

IC50 [1]: < 100 µM
Molecule: CSCC[C@H](NC(C)=O)C(=O)N[C@@H](C)C(=O)N[C@@H](Cc1ccccc1)C(=O)N[C@@H](CC(=O)O)C(=O)N[C@@H](CO)C(=O)N[C@@H](CC(C)C)C(=O)N[C@@H](CC(C)C)C(=O)N[C@@H](CCCCN)C(=O)NC(C)(C)C(=O)N[C@@H](C)C(=O)N[C@@H](CCC(N)=O)C(=O)N[C@@H](CCC(N)=O)C(=O)N[C@@H](CO)C(N)=O [PGC1β-16, Ac-MAFDSLLK(Aib)AQQS-NH2] (Ac-MAFDSLLK[Aib]AQQS-NH2)

IC50 [2]: 93 µM
Molecule: Ac-SLDFDDLLKQAQKNLRR-NH2 [PRC-Cterm (Ac-SLDFDDLLKQAQKNLRR-NH2)]

IC50 [2]: 50 µM
Molecule: Ac-MAFDSLLKEAQQS-NH2 [PGC1β-2A (Ac-MAFDSLLKEAQQS-NH2)]

IC50 [2]: 56 µM
Molecule: Ac-MDFDSLLKEAQAS-NH2 [PGC1β-12A (Ac-MDFDSLLKEAQAS-NH2)]

IC50 [2]: 72 µM
Molecule: Ac-MDFDSLLAEAQQS-NH2 [PGC1β-8A (Ac-MDFDSLLAEAQQS-NH2)]

IC50 [2]: 32 µM
B1: PGC1β-Cterm (Ac-AMDFDSLLKEAQQSLH-NH2) (peptide)
peptide: Ac-AMDFDSLLKEAQQSLH-NH2
notes: also called PGC1β-Cterm peptide; unlabeled version of the PGC1β peptide

IC50 [2]: 80 µM
Molecule: Ac-MDFDSLLKEAQQSRRRRRRRR-NH2 [PGC1β-19 (Ac-MDFDSLLKEAQQSRRRRRRRR-NH2)]

IC50 [2]: 26 µM
Molecule: Ac-SLDFDSLLKEAQRSLRR-NH2 [PGC1α-Cterm (Ac-SLDFDSLLKEAQRSLRR-NH2)]
